Reference: patent US20160223526A1, “METHOD OF SCREENING FOR COMPOUNDS USEFUL IN THE TREATMENT OF HUNTINGTON DISEASE” (INNOVATIVE CONCEPTS IN DRUG DEVELOPMENT, priority 2013, published 2016)

Test system: Patient-derived fibroblasts, cells from HD patient (ID 090401)
Test: Reversal of the HD-signature (mitochondrial behaviour variables) by dynamic imaging of patient-derived fibroblasts
Assay type: cell-based, human
Conditions: for recovery (weighted overall rescue of the diseased phenotype, discriminant equation on 7 HD-signature variables): 30 min incubation, 0% = diseased status, 100% = healthy status
Method: Fibroblasts were labelled with MitoTracker green, a cell-permeant mitochondrial dye not sensitive to mitochondrial membrane potential, for 30 minutes. Images were recorded from an epifluorescence microscope continuously for 6 minutes. Cells were kept at 37° C. for the duration of the image capture. For each experimental condition, 3 to 15 cells were recorded per well from three independent plates, i.e. up to 6000 individual mitochondria. The maximum duration for data acquisition was 30 minutes (i.e. five cells observed during 6 min). Images were captured with a Zeiss Axioplan II microscope along three dimensions in space and in time.
Patient-derived fibroblasts were cultured in DMEM containing 15% fetal calf serum. and 0.5% DMSO, a concentration known to be inert on the mitochondrial behaviour.
Cells were incubated with different doses of resveratrol or cyclosporine A (CSA) diluted in DMSO or with the vehicle only (DMSO) for 30 minutes and observed through time-lapse video-microscopy for another 30 minutes during dynamic image capture.
Resveratrol and CSA were tested at 4 doses spanning […] (10, 1, 0.1 and 0.05 μM).
The negative control was cells from HD patient (ID 090401) with the vehicle only and the positive control was cells from healthy patient (ID 071201) with the vehicle only.
The raw data obtained for each mitochondrion were expressed as a ratio (%) according to the following formula: DATA=(NC−Var)*100/(NC−PC) (NC=average value of the negative control; PC=average value of the positive control; Var=value of the variable).
Effects are expressed as a percent of control values as defined above, i.e. % of phenotypic rescue. 0% represents the diseased status while 100% represents the healthy status.
To express the weighted effect of the variables on the overall rescue, a discriminant equation was applied.

Oc1ccc(C=Cc2cc(O)cc(O)c2)cc1 [Resveratrol]
recovery (weighted overall rescue of the diseased phenotype, discriminant equation on 7 HD-signature variables) (0.05 μM): detrimental effect with a mild worsening of the diseased status | recovery (weighted overall rescue of the diseased phenotype, discriminant equation on 7 HD-signature variables) (10 μM): exceeds the healthy status | overall effect / activity profile over the dose range (weighted dose-response on disease-modification) (doses 10, 1, 0.1 and 0.05 μM): disease-modifying capabilities and rescue of the disease status except at low dose
